# Reference: patent US20230011536A1, “MESENCHYMAL STEM CELL DERIVED EXTRACELLULAR VESICLES LOADED WITH AT LEAST ONE PHOTOSENSITIZER AND USES THEREOF FOR THE TREATMENT OF PERITONEAL CARCINOMATOSIS” (priority 2019, published 2023)
# Legend:
# [1] = mTHPC biodistribution after intraperitoneal injection, colorectal peritoneal carcinomatosis model (CT26); format: in vivo, mouse; conditions: for mTHPC level in tumor tissue: 0.5 mg/kg mTHPC, mean±SEM
# Protocol: All animal experiments were performed in agreement with institutional animal use and care after approval by the local Ethics Committee (registration number for the carcinomatosis model experiment: APAFIS-8617). Six-week-old female BALB/c (provided by Charles River, Arbresle, France and weighing 18 g) and C57BL/6 mice were provided with food and water ad libidum, for colon and ovarian model respectively. The animals were allowed to acclimate to the facility for at least one week before being used for experiments. Colorectal model was induced with an intraperitoneal injection of 5·10^4 CT26 cells resuspended in a volume of 200 μL of physiological saline per inoculum. […] Between the days of IP injection and sacrifice, the wellbeing of the mice was checked twice a week through the search of any sign of pain, dehydration, changing in behavior or loss of weight.
# Briefly, tumor-bearing animals (with colorectal carcinomatosis) were injected at 0.5 mg/kg mTHPC intraperitoneally. Either at 4 h, 15 h, 24 h or 48 h mice were sacrificed to determine mTHPC accumulation in different organs: tumors, liver, spleen, kidney, intestine, peritoneum, skin and lung. First, organs were weighed and grinded in PBS (1 mL per 10 mg of organ). The amount of 0.8 mL of MeOH per 10 mg of organ was added to the solution and vortexed; then, 0.8 mL of chloroform was added. The solution was centrifuged at 1400 rpm for 10 minutes to allow the separation of the aqueous and chloroform phases. The bottom layer consisting of the chloroform and the solubilized mTHPC was transferred for spectroscopy measurements. Fluorescence emission spectra were obtained by a fluorescence spectrophotometer using 415 nm excitation wavelength.
# [2] = tested on: colorectal peritoneal carcinomatosis (CT26); test: Early effectiveness of PDT in mouse model of colorectal peritoneal carcinomatosis (histology, TUNEL, immunostaining 48 h after illumination); format: in vivo
# Protocol: (§1) After 24 h, animals from both groups were anesthetized with isoflurane, a midline laparotomy was performed to allow invasive laser irradiation, and were then irradiated using a 650 nm laser at a fluence of 10 J/cm^2 (100 mW/cm^2 for 100 s). Two irradiations spots were successively realized to allow an illumination of the entire cavity and drops of saline were used to keep the tissue moist. A heating device was used to keep body temperature stable throughout the treatment until the animal was woken up. The peritoneum and the skin were separately sutured immediately after irradiation.
# (§2) Treatment injection was made 12 days after IP inoculation of CT26, followed by invasive illumination 24 hours after. Six groups were performed for each experimentation: (i) no treatment, (ii) laser, (iii) free mTHPC, (iv) EVs-mTHPC, (v) free mTHPC+laser, (vi) EVs-mTHPC+laser.
# Early effectiveness was evaluated 48 hours after illumination to compare: tumoral necrosis, apoptosis, macrophages invasion, lymphocyte recruitment, vascular damage and proliferative index result according to treatment. Long-term effectiveness consisted on a survival analysis function of the treatment.
# For immunohistochemical detection of the chosen markers for tumor tissue, sections were deparaffined and subject to antigen retrieval methods validated for each of the primary antibodies.
# Antibody expression for each analysis was evaluated by the mean number of positive cells in 3 randomly chosen areas (×40 magnification) for 10-15 nodes by treatment. Quantitative analysis of immunostaining preparation was performed using the color segmentation ImageJ plugin developed by the Biomedical Imaging Group at the EPFL, Switzerland.
# TUNEL assay: Cell apoptosis in tumour was detected by a FragEL DNA fragmentation (TUNEL) detection kit (Sigma, Roche, ref 11684795910). In brief the cryostat section were permeabilized with 0.1% Triton and 0.1% (citrate de sodium) in 10×PBS. The slides were then labeled with a TdT reaction mixture for 60 min and were mounted with a mounting solution containing 4′, 6-diamidino-2-phenylindole (DAPI). The apoptotic cells (green) and cell nucleus (blue) was examined using a fluorescence microscopy. The percentage of apoptotic cells was assessed in 2 randomly fields at 40× magnification. The apoptotic index was calculated with image J.
# For image-based quantitative analysis of blood vessels, immunofluorescence detection of CD31 was made after one hour incubation with antiCD31 antibody (BD 553370,1/50) and 45 min incubation with second antibody (Alexa Fluor® 488, ThermoFisher, A11006, dilution 1/200)
# [3] = tested on: colorectal peritoneal carcinomatosis (CT26); test: Survival analysis after PDT in colorectal peritoneal carcinomatosis model; format: in vivo, mouse
# Protocol: as §1, §2
# Another 10 or 11 mice were selected from each group to evaluate the overall survival until 30 days. The end point was defined as mice death or the cachexia with the loss of 20% of the total weight that required the killing of the animal (as mentioned in the registration).
smiles,measurement,setting,value
"Oc1cccc(-c2c3nc(c(-c4cccc(O)c4)c4ccc([nH]4)c(-c4cccc(O)c4)c4nc(c(-c5cccc(O)c5)c5ccc2[nH]5)CC4)C=C3)c1 [mTHPC, 5,10,15,20-Tetrakis(3-hydroxyphenyl)chlorin]",mTHPC level in tumor tissue,[1]; 4 h after IP injection,0.10±0.01 ng/mg tissue
same,mTHPC level in tumor tissue,[1]; 15 h after IP injection,0.15±0.04 ng/mg tissue
same,mTHPC level in tumor tissue,[1]; 24 h after IP injection,0.16±0.05 ng/mg tissue
same,mTHPC level in tumor tissue,[1]; 48 h after IP injection,0.10±0.00 ng/mg tissue
same,"tumor-to-organ ratio, total average",[1]; average over all time points,2.5
same,CD8 detection in tumor,[2]; +laser,1.88%±0.2
same,CD31 expression (fluorescence signal),[2]; +laser,0.55·10^7±1.0·10^6
same,TUNEL mean fluorescence per mm^2 of tumor (apoptosis),[2]; +laser,2.17±0.2
same,anti CD3 labeling in tumor (T-lymphocyte infiltration),[2]; +laser,2.51%±0.3
same,macrophage intra-tumor invasion (anti F4/80),[2]; +laser,41.45%±2.2
same,mean Ki67-index,[2]; +laser,26.2%±4.5
same,proliferation index reduced by a factor of,[2]; photoactivated (+laser),2
same,CD8 detection in tumor,[2]; without laser,0.44%±0.07
same,CD31 expression (fluorescence signal),[2]; without laser,1.06·10^7±1.4·10^6
same,TUNEL mean fluorescence per mm^2 of tumor (apoptosis),[2]; without laser,0.86±0.4
same,anti CD3 labeling in tumor (T-lymphocyte infiltration),[2]; without laser,0.33%±0.07
same,macrophage intra-tumor invasion (anti F4/80),[2]; without laser,13.19%±1.4
same,mean Ki67-index,[2]; without laser,45.52±3.4%
same,dead mice 4 days after laser illumination (lethal toxicity),"[3]; +laser, […]",91%
same,"histological analysis after PDT (liver, kidney)",[3]; non-vectorized PDT group,hepatic and kidney necrosis
